{
  "source": "patent US7596836B2",
  "about": "(priority 2007, dated 2009)",
  "origin": "cited, not measured here",
  "key": {"[1]": {"details": "in vivo"}, "[2]": {"test_system": "HIV", "details": "clinical trials; response directly related to the dosage given"}, "[3]": {"details": "250 mg chloroquine phosphate twice daily must be monitored closely"}, "[4]": {"details": "in vivo", "remark": "listed apart in the source"}, "[5]": {"test_system": "Avian Influenza H5N1", "details": "patients worldwide, current strain of Avian Influenza H5N1"}, "[6]": {"details": "reports in Japan, including suicide attempts"}, "[7]": {"test_system": "influenza", "details": "dosage of a compound containing 1% to 3% thymol"}},
  "data": [
    {"smiles": "CC1CCC(C(C)C)C(O)C1", "note": "(stereo not shown) [Menthol]", "values": [
      {"measurement": "reduction of coughing", "setting": "[1]", "value": 50, "unit": "%"}
    ]},
    {"smiles": "CCN(CC)CCCC(C)Nc1ccnc2cc(Cl)ccc12", "note": "(stereo not shown) [chloroquine]", "values": [
      {"measurement": "efficacy against HIV", "setting": "[2]", "value": "effective against HIV"},
      {"measurement": "toxicity of oral chloroquine", "setting": "[3]", "value": "ocular complications and renal toxicity"},
      {"measurement": "serum half-life", "setting": "[4]", "value": 96, "unit": "h"}
    ]},
    {"smiles": "CCOC(=O)C1=C[C@@H](OC(CC)CC)[C@H](NC(C)=O)[C@@H](N)C1", "note": "[oseltamivir]", "values": [
      {"measurement": "mortality of oseltamivir treated patients", "setting": "[5]", "value": "~50", "unit": "%"},
      {"measurement": "reported side effects", "setting": "[6]", "value": "serious neuropsychiatric symptoms"}
    ]},
    {"smiles": "Cc1ccc(C(C)C)c(O)c1", "note": "[thymol, Thymol]", "values": [
      {"measurement": "effect against influenza", "setting": "[7]", "value": "effective at fighting influenza"}
    ]}
  ]
}
